The values below come from patent EP1060190B1, “NEW SALT FORMS OF (2E)- 5-AMINO-5- METHYLHEX-2- ENOIC ACID N-METHYL-N-((1R)-1-(N- METHYL-N-((1R)-1-(METHYLCARBAMOYL)-2- PHENYLETHYL)CARBAMOYL)-2- (2-NAPHTYL)ETHYL)AMIDE” (NOVO NORDISK A/S, priority 1998, dated 1999).

This data set in a line: Exposure of the anhydrous salt form to high humidity (solid form stability). It counts as physicochemical. Conditions: e.g. 10 weeks at 98% RH.

SMILES strings stand for the structures. Where a name gives a salt, the structure may show the parent alone.

As to `CNC(=O)[C@@H](Cc1ccccc1)N(C)C(=O)[C@@H](Cc1ccc2ccccc2c1)N(C)C(=O)/C=C/CC(C)(C)N` [compound I,hfum, compound I,hemi fumarate], the “Exposure of the anhydrous form to high humidity” value is recorded as “produced the hydrous form”.
